Results on 16 molecules are retold here after patent US5173510A, “Simplified thioester and isostere analogs of oleoyl coenzyme A as hypocholesterolemic agents” (American Cyanamid Company, priority 1991, dated 1992).

This assay has as its target T1, acyl coenzyme A: cholesterol O-acyltransferase (ACAT) (Oryctolagus cuniculus, UniProt G1SFD9).
T1 construct: The microsomal fraction was isolated by centrifugation and stored frozen; from tissue; host or cells: jejunal mucosa microsomes of New Zealand white rabbits
T1 sequence (G1SFD9 1-524): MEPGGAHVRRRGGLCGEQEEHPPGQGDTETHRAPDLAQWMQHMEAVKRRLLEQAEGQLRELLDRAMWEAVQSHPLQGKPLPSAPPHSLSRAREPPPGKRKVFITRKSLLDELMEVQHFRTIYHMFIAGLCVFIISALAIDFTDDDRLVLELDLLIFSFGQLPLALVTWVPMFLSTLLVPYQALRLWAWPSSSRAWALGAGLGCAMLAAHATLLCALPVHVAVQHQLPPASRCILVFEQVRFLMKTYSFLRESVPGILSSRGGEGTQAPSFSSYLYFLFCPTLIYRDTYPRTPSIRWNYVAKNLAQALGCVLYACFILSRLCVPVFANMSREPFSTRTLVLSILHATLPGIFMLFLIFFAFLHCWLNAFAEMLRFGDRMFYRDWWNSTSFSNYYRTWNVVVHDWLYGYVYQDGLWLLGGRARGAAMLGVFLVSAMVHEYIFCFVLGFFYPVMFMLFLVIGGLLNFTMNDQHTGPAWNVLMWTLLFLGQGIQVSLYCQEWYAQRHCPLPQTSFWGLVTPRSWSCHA
The assay is described as follows: Inhibition of ACAT catalyzed formation of cholesterol oleate from endogenous cholesterol and exogenous 14C oleate. Conditions: for IC50: concentration at which 50% of the cholesterol esterification reaction is inhibited, rabbit jejunum mucosa microsomal fraction; for potency as inhibitors of the ACAT enzyme catalyzed reaction (in words): summary statement on Table I. In kind it is biochemical, New Zealand white rabbits. As for the experimental part:
The compounds of this invention were tested for their ability to inhibit the acyl coenzyme A: cholesterol O-acyltransferase (ACAT) catalyzed formation of cholesterol oleate from endogenous cholesterol and exogenous ^14 C oleate.
The mucosa from the Jejunum of New Zealand white rabbits was removed by scraping with a spatula and homogenized in a solution containing 0.25M sucrose, 1 mM EDTA, 1 mM dithiothreitol and 5 mM of potassium phosphate (pH 7.4). The microsomal fraction was isolated by centrifugation and stored frozen at -70° C. in sucrose buffer (3 mg protein/ml) until use. The ACAT reaction was assayed using the method of S. Hashimoto, et al., Life Science 12, 1 (1973). The test compounds were dissolved in methanol at concentrations such that the addition of 0.003 ml in a reaction volume of 0.5 ml gave the final desired concentration.
Referring to the table, IC50 indicates the concentration of the compound at which 50% of the cholesterol esterfication reaction is inhibited. […] As can be observed from the table, the compounds of the present invention are very potent inhibitors of the ACAT enzyme catalyzed reaction. […] In view of the results presented in the table, these compounds are useful for controlling and reducing the cholesteryl ester content of mammalian arterial walls and decreasing the accumulation and storage of cholesterol in the arterial walls of mammals. Further, the compounds of this invention may inhibit the formation or development of atherosclerotic lesions in mammals.

For `CCCCCCCC/C=C\CCCCCCCC(=O)SCCNC(C)=O` [Example 3, S-[2-(Acetylamino)ethyl]-9(Z)-octadecenethioic acid], the IC50 – broadly, the concentration at which inhibition is half-maximal – is greater than 100 µM. Turning to `CCCCCCCC/C=C\CCCCCCCC(=O)SCCNC(=O)CCNC(C)=O` [Example 6, S-[2-[[3-(Acetylamino)-1-oxopropyl]amino]ethyl]-9(Z)-octadecenethioate], the IC50 was greater than 100 µM.

Regarding `CCCCCCCC/C=C\CCCCCCCC(=O)SCCNC(=O)CCNC(=O)[C@H](O)C(C)(C)CO` [Example 10, S-[2-[[3-[(2,4-Dihydroxy-3,3-dimethyl-1-oxobutyl)amino]-1-oxopropyl]amino]ethyl]-9(Z)octadecenethioic acid], the IC50 came out at 103 µM. The same measure, in the same setting: with `CCCCCCCC/C=C\CCCCCCCC(=O)OCCNC(C)=O` [Example 11] the figure was greater than 100 µM. The same measure, in the same setting: in the case of `CCCCCCCC/C=C\CCCCCCCC(=O)OCCNC(=O)CCNC(C)=O` [Example 13, 2-[[3-(Acetylamino)-1-oxopropyl]amino]ethyl-9(Z)-octadecenoate] it was greater than 150 µM. The molecule `CCCCCCCC/C=C\CCCCCCCC(=O)OCCNC(=O)CCNC(=O)C(O)C(C)(C)CO` (stereo not drawn) [Example 17, 2-[[3-[(2,4-Dihydroxy-3,3-dimethyl-1-oxo-butyl)amino]-1-oxopropyl]amino]ethyl-9(Z)-octadecenoate] registered an IC50 of 77 µM. The same measure, in the same setting: in the case of `CCCCCCCC/C=C\CCCCCCCC(=O)NCCNC(C)=O` [Example 18, N-[2-(Acetylamino)ethyl]-9(Z)-octadecenamide] it was 39 µM; in that of `CCCCCCCC/C=C\CCCCCCCC(=O)NCCNC(=O)CCNC(C)=O` [Example 22, N-[2-[[3-(Acetylamino)-1-oxopropyl]amino]ethyl]-9(Z)-octadecenamide], greater than 100 µM. With `CCCCCCCC/C=C\CCCCCCCC(=O)NCCNC(=O)CCNC(=O)C1OC(C)(C)OCC1(C)C` (stereo not drawn) [Example 25, 2,2,5,5-Tetramethyl-N-[3-oxo-3-[[2-[(1-oxo-9(Z)-octadecenyl)amino]ethyl]amino]propyl]-1,3-dioxane-4-carboxamide], the IC50 is 1.2 µM and the “potency as inhibitors of the ACAT enzyme catalyzed reaction (in words)” value was “most potent”.

With `CCCCCCCC/C=C\CCCCCCCC(=O)NCCNC(=O)CCNC(=O)C(O)C(C)(C)CO` (stereo not drawn) [Example 26, N-[2-[[3-[(2,4-Dihydroxy-3,3-dimethyl-1-oxo-butyl)amino]-1-oxopropyl]amino]ethyl]-9(Z)-octadecenamide], the IC50 came out at 3.3 µM and the “potency as inhibitors of the ACAT enzyme catalyzed reaction (in words)” value was “most potent”.

In turn, `CCCCCCCC/C=C\CCCCCCCC(O)CCCNC(C)=O` (stereo not drawn) [Example 31] displayed an IC50 of 47 µM. That is a double-digit micromolar value. Molecule `CCCCCCCC/C=C\CCCCCCCC(=O)CCCNC(C)=O` [Example 32] registered an IC50 of 66 µM. This IC50 and that of the molecule before are within 1.5-fold of each other.

Regarding `CCCCCCCC/C=C\CCCCCCCC(O)CCCNC(=O)CCNC(C)=O` (stereo not drawn) [Example 33, 3-(Acetylamino)-N-(4-hydroxy-12(Z)-heneicosenyl)propanamide], inhibition was half-maximal at 108 µM (IC50).

In turn, `CCCCCCCC/C=C\CCCCCCCC(=O)CCCNC(=O)CCNC(C)=O` [Example 34, 3-(Acetylamino)-N-(4-oxo-12(Z)-heneicosenyl)propanamide] displayed an IC50 of 113 µM. The same measure, in the same setting: in the case of `CCCCCCCC/C=C\CCCCCCCC(=O)CCCNC(=O)CCNC(=O)C(O)C(C)(C)CO` (stereo not drawn) [Example 37, 2,4-Dihydroxy-2,2-dimethyl-N-[3-oxo-3-[(4-oxo-12(Z)-heneicosenyl)amino]propyl]butanamide] it was 99 µM; in that of `CCCCCCCC/C=C\CCCCCCCC(O)CCCNC(=O)CCNC(=O)C(O)C(C)(C)CO` (stereo not drawn) [Example 38, 2,4-Dihydroxy-N-[3-[(4-hydroxy-12(Z)-heneicosyl)amino]-3-oxopropyl]-3,3-dimethylbutanamide], 57 µM.
